# Assay results reported in PMC7876453, “Targeting Indoleamine 2,3-Dioxygenase in Cancer Models Using the Novel Small Molecule Inhibitor NTRC 3883-0” (Frontiers in Immunology, 2021).
# Like-named read-outs stand apart in the source and are kept apart here.
# Key:
# [1] = in vivo pharmacokinetics, mouse; set-up: species or system male CD-1 mice; settings: male; for clearance / Vd: intravenous; for Vd: read-out: Vss
# Description: Pharmacokinetic properties of NTRC 3883-0 were determined in plasma following single oral (p.o.) and i.v. administration to male CD-1 mice (n = 6 per treatment group with three mice sampled per time point), Wistar rats (n = 3), cynomolgus monkey (n = 1) and Beagle dogs (n = 3). Formulations were prepared in DMSO, Kolliphor® EL, 5% D-mannitol in Elix water at a volume ratio of 1:1:8 for i.v. administration, and in 0.5% gelatin, 5% D-mannitol in Elix water for p.o. administration. Plasma samples were collected at eight to eleven time points up to 24 h after administration. Pharmacokinetic properties and required dosing in humans were predicted by allometric scaling by Karin Jorga Life Science Consulting (Basel, Switzerland) ( Figure S2 and Table S2 ).
# hWB + IFNγ (hIDO1) = target: T1, hWB + IFNγ (hIDO1) (Homo sapiens, UniProt P14902); assay: human whole blood assay, Trp-catabolizing activity after IFNγ stimulation; assay type: cell-based; settings: human whole blood from healthy donors
# T1 construct: from tissue; host or cells: heparinized human whole blood from healthy donors, IFNγ-stimulated
# [2] = plasma protein binding, dog; assay type: in vitro ADME
# Description: (§1) Supplement DataSheet_1.docx, table 2: Table S2. Pharmacokinetic parameters of NTRC 3883-0 observed in mouse, rat, monkey and dog, and predicted for humans using allometric scaling. Data in bold are measured, while data in italics are calculated or predicted (for humans). The clearance (Cl) and volume of distribution at steady state (Vss | column: Dog
# [3] = test system: IFNγ-stimulated adherent cell samples isolated from ascites of ovarian cancer patients; assay: Trp-catabolizing activity in IFNγ-stimulated ascites cell samples; assay type: cell-based; settings: Homo sapiens
# Description: Ascites was collected from patients with a primary diagnosis of advanced epithelial ovarian cancer during paracentesis for diagnostics or symptom relieve, or during primary debulking surgery. Ascites was filtered and cells were collected by centrifugation as described ([23]). To enrich for tumor cells, ascites cell samples were allowed to adhere overnight to tissue culture plastic. The cell samples were then cultured for 2–3 weeks in advanced RPMI medium (ThermoFisher), supplemented with 10% FBS, 1% glutamax and 1% P/S, with 2 or 3 times passaging of the cells. qPCR analyses of the MUC16, HE4, IDO1, and TDO2 genes were performed for all samples as described above. Five samples which could be cultured over multiple passages were analyzed for cell surface expression of mucin-16 and EpCAM by flow cytometry using FITC-conjugated anti-mucin-16 (AssayPro, #32189-05141) and APC-conjugated anti-EpCAM (Miltenyi, #130-111-117, RRID: AB_2657496) to assure that the cell cultures consisted of malignant cells. IDO1 mRNA and protein levels in these samples were analyzed as described above after incubation with or without 200 ng/ml IFNγ for 24 h. The collection of ascites and the research described was conducted with approval of the medical ethical committee of the Radboud university medical center and informed written consent from each subject.
# [4] = plasma protein binding, human; assay type: in vitro ADME; settings: column Human (predicted)
# Description: as §1, with “Human (predicted)” for “Dog”
# SW48 (hTDO) = target: T2, SW48 (hTDO) (Homo sapiens, UniProt P48775); assay: cell-based assay, Trp-catabolizing activity in SW48 cells
# T2 construct: host or cells: SW48 cells
# [5] = test system: CT26 cells implanted subcutaneously into female BALB/c mice; assay: CT26 mouse model, second study (Charles River); assay type: in vivo
# Description: For the second study, performed at Charles River Laboratories, 3 × 10^5 CT26 cells were implanted subcutaneously into female BALB/c mice on day 0. […] Tumor growth was monitored using caliper measurement 3 times weekly. A tumor volume of 2000 mm^3 was used as the endpoint of the experiment for the individual animals. Tumors were sampled 2 h post last dose.
# Tissues were homogenized in PBS at a ratio of 1 mg per 10 μl using micro pellet pestles mounted on a Micro-Tube Homogenizer System (Thomas Scientific). After centrifugation, proteins were removed from the homogenized tissue supernatants and plasma samples by precipitation with methanol. The concentrations of inhibitor, Trp and Kyn were determined by LC-MS/MS.
# dog whole blood = dog whole blood assay; assay type: cell-based; settings: Canis lupus familiaris
# CYP2D6 = target: T3, CYP2D6 (Homo sapiens, UniProt P10635); assay: CYP2D6 inhibition (P450-Glo); assay type: in vitro ADME; settings: 10 µM
# T3 construct: purchased Promega V9890
# Description: Full-length recombinant human and mouse IDO1 were expressed in Escherichia coli with a hexahistidine tag at the N-terminus, and purified by affinity chromatography to > 95% purity, as described ([8]). Human and mouse TDO containing a C-terminal hexahistidine tag were analogously expressed and purified to > 95% purity ([8]). The inhibitory activity of compounds was determined with the NFK GreenScreen assay technology under the conditions as described ([8]), except for the reaction buffer for IDO1, which was replaced by 50 mM NaH2PO4, pH 7.0, supplemented with 0.01% Tween-20 and 1% glycerol. Inhibition of the CYP3A4 and CYP2D6 enzymes was determined with the P450-Glo™ Screening System with Luciferin-IPA (Promega, #V9920 and V9890). For determination of IC50 values, the effect of inhibitors was determined in 10-point duplicate dose-response curves. Graphs were fitted to a four-parameter logistics equation in XLfit (ID Business Solutions, Ltd., Guildford, UK) from which IC50 values were calculated.
# mIDO1 = target: T4, mIDO1 (Mus musculus, UniProt P28776); assay: mouse IDO1 biochemical assay (NFK GreenScreen)
# T4 construct: Full-length recombinant human and mouse IDO1 were expressed in Escherichia coli with a hexahistidine tag at the N-terminus; hexahistidine (N); made in house; host or cells: Escherichia coli
# HEK-hIDO1 = HEK-hIDO1 (Homo sapiens, UniProt P14902); assay: cell-based assay, Trp-catabolizing activity in HEK-hIDO1 cells
# B16F10-mIDO1 = B16F10-mIDO1 (Mus musculus, UniProt P28776); assay: cell-based assay, Trp-catabolizing activity in B16F10-mIDO1 cells
# [6] = CD-1, plasma, mouse, body weight 0.036 kg
# T2 sequence (P48775 whole entry): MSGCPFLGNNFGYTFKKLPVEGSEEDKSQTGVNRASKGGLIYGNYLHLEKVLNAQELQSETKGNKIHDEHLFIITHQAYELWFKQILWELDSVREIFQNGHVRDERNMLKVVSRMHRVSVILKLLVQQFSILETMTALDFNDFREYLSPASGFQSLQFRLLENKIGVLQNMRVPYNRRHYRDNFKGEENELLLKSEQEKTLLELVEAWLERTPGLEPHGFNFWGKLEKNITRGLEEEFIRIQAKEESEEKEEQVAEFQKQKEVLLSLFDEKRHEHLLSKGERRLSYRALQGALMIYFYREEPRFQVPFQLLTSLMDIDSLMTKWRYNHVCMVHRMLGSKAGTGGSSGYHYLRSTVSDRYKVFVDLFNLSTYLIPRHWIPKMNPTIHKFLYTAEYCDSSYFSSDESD
# B16F10-mIDO1, sequence (P28776 whole entry, one chain of several): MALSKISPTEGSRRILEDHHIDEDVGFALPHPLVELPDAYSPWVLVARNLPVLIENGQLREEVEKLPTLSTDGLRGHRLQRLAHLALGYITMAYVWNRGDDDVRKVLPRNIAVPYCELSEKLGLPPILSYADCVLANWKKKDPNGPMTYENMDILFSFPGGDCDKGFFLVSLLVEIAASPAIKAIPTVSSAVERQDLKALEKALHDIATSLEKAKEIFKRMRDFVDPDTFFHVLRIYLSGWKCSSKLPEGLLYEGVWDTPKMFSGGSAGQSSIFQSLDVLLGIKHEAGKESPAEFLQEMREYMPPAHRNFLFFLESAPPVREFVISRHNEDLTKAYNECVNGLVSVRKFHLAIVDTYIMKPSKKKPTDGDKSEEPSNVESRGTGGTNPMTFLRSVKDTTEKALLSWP
# T3 sequence (P10635 whole entry): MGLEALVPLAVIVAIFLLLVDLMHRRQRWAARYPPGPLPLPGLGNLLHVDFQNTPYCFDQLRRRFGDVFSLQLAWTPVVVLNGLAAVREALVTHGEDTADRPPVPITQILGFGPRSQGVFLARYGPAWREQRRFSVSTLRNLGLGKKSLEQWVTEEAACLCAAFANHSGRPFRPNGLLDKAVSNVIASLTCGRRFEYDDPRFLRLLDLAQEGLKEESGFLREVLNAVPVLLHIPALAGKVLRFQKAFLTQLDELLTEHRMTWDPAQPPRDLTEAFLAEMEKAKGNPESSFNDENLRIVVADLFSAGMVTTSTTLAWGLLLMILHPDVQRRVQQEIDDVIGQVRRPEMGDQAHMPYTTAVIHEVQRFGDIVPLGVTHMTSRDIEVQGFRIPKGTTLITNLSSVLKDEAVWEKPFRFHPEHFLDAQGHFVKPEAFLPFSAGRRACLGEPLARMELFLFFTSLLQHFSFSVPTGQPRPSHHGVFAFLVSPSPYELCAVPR
# T1 sequence (P14902 whole entry): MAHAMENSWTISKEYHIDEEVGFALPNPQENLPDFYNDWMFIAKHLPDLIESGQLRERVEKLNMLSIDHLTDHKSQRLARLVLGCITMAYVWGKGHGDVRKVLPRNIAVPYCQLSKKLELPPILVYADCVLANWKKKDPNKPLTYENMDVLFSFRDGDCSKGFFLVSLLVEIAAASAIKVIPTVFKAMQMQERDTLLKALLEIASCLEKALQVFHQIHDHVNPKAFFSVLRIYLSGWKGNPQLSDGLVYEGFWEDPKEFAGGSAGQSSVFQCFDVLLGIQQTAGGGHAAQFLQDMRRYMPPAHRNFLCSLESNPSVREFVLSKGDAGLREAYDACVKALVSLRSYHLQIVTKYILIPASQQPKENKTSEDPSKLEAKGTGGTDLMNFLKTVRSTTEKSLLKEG
# HEK-hIDO1, sequence (P14902 whole entry): as above
# T4 sequence (P28776 whole entry): as the sequence (P28776 whole entry, one chain of several) above
compound,measurement,setting,value
O=C1CN(C(=O)c2c(F)cccc2F)[C@H](c2cccc(Br)c2)N1O [NTRC 3883-0],half-life,"[1]; CD-1, mouse, plasma",5.2 h
same,clearance,"[1]; CD-1, mouse, plasma",18.5 mL/min/kg
same,Vd,"[1]; CD-1, mouse, plasma",3.63 L/kg
same,clearance,[1]; [6],0.667 mL/min
same,Vd,[1]; [6],0.131 L
same,IC50,hWB + IFNγ (hIDO1),378 nM
same,fraction unbound,[2],0.21
same,IC50,"[3]; IFNγ-stimulated samples, read-out: IC50",261 nM
same,IC50,"[3]; IFNγ-stimulated, read-out: IC50 ASC 009",236 nM
same,IC50,"[3]; IFNγ-stimulated, read-out: IC50 ASC 010",294 nM
same,IC50,"[3]; IFNγ-stimulated, read-out: IC50 ASC 013",237 nM
same,IC50,"[3]; IFNγ-stimulated, read-out: IC50 ASC 031",271 nM
same,IC50,"[3]; IFNγ-stimulated, read-out: IC50 ASC 041",321 nM
same,fraction unbound,[4],0.26
same,inhibition at 31.6 µM,"SW48 (hTDO); SW48, @ 31,600 nM",< 20%
same,effect on Trp-catabolizing activity in SW48 (in words),SW48 (hTDO); constitutively expresses TDO,no effect
same,tumor growth,[5]; 100 mg/kg p.o. b.i.d. from day 8,no inhibition of tumor growth
same,Kyn levels in the tumor,"[5]; LC-MS/MS, 2 h post last dose, 100 mg/kg p.o. b.i.d.",considerable reduction of Kyn levels
same,IC90,dog whole blood,1000 nM
same,inhibition of CYP2D6 activity,CYP2D6,did not inhibit
same,IC50,mIDO1,93 nM
same,IC50,HEK-hIDO1,119 nM
same,IC50,B16F10-mIDO1,18 nM
same,times more potent compared to epacadostat in B16F10-mIDO1 assay,B16F10-mIDO1,5 times
